The experiment deals with T1, BoMan26B (Bacteroides ovatus, UniProt A0ABU3IS29).
T1 construct: gene RO706_12620; signal peptide (first 19 residues) removed; recombinant in E. coli BL21(DE3), purified on a HisTrap column; residues 37-361 modelled; catalytic Glu-201 and Glu-291
T1 sequence (A0ABU3IS29 20-360): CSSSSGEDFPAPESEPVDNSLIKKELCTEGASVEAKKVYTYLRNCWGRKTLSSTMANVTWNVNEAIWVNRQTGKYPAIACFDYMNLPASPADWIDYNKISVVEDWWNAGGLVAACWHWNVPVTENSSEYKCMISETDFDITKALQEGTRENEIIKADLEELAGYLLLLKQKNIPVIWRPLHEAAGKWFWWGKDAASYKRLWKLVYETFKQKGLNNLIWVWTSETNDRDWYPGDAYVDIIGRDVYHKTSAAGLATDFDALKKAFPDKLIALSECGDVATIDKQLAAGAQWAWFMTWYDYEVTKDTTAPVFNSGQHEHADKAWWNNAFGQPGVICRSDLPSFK
In words: hydrolysis in H2^[…], MALDI-TOF MS and HPAEC-PAD. Format: biochemical. The conditions noted are these: 2 mM M6, 1 mM CaCl2, potassium phosphate pH 6.5, 8 °C.

As to `OC[C@H]1O[C@@H](O[C@H]2[C@H](O)[C@H](O)[C@H](O[C@H]3[C@H](O)[C@H](O)[C@H](O[C@H]4[C@H](O)[C@H](O)[C@H](O[C@H]5[C@H](O)[C@H](O)[C@H](O[C@H]6[C@H](O)[C@H](O)C(O)O[C@@H]6CO)O[C@@H]5CO)O[C@@H]4CO)O[C@@H]3CO)O[C@@H]2CO)[C@@H](O)[C@@H](O)[C@@H]1O` (stereo partly shown) [M6, mannohexaose], the “hydrolysis in H2^18O, MALDI-TOF MS and HPAEC-PAD” value is “The main hydrolytic events of BoMan26B on M6 result in production of mannose”.

The record behind these values is PMC6556568, “A surface-exposed GH26 β-mannanase from Bacteroides ovatus: Structure, role, and phylogenetic analysis of BoMan26B” (The Journal of Biological Chemistry, 2019).
